Measured values from ChEMBL document CHEMBL4613212, “Insights of synthetic analogues of anti-leprosy agents” (Bioorg Med Chem, 2019).
In brackets after ≈: the same amount, converted by molar mass.

Experiments:
Staphylococcus aureus = test: Antimicrobial activity against Staphylococcus aureus assessed as zone of inhibition incubated for 20 hrs by agar well diffusion assay; format: functional
Escherichia coli = test: Antimicrobial activity against Escherichia coli assessed as zone of inhibition incubated for 20 hrs by agar well diffusion assay; format: functional
[1] = Cytotoxicity against LPS-induced human monocytes assessed as cell viability at 50 uM by tryphan blue staining based assay relative to control; set-up: species or system Monocyte; conditions: read-out: Activity
Monocyte [2] = test: Antiinflammatory activity in human monocytes assessed as inhibition of LPS-induced TNFaplha production at 50 uM preincubated for 15 mins followed by LPS addition and measured after 4 hrs by ELISA relative to control; format: functional
Monocyte [3] = test: Antiinflammatory activity in human monocytes assessed as inhibition of LPS-induced TNFaplha production at 25 uM preincubated for 15 mins followed by LPS addition and measured after 4 hrs by ELISA relative to control; format: functional
Mycobacterium leprae [4] = test: Anti-leprotic activity against Mycobacterium leprae infected in 538 CBA mouse assessed as number of Mycobacterium leprae in paw pads at 6 mg/kg administrated via gastric tube 5 times a week and measured 7 months post infection; format: functional
Mycobacterium leprae [5] = test: Anti-leprotic activity against Mycobacterium leprae infected in 538 CBA mouse assessed as number of Mycobacterium leprae in paw pads at 2 mg/kg administrated via gastric tube 5 times a week and measured 7 months post infection; format: functional
[6] = test system: Mycolicibacterium smegmatis; test: Antimycobacterial activity against Mycobacterium smegmatis mc2 155 incubated for 2 days by spectrophotometric based assay; format: functional; conditions: MC2 155, 48 h
Mycobacterium leprae [7] = test: (§1) Inhibition of PGL1 synthesis in Mycobacterium leprae infected Swiss Webster mouse macrophages assessed as decrease in [U-14C]PA incorporation at 0.2 uM preincubated for 4 days post infection followed by [U-14C]PA addition and measured after 7 days by liquid scintillation counter analysis relative to control; format: functional
Mycobacterium leprae [8] = test: as §1, with “2” for “0.2”; format: functional
[9] = test system: Mycolicibacterium fortuitum; test: Antimicrobial activity against Mycobacterium fortuitum incubated for 24 hrs by broth microdilution assay; format: functional
Mycolicibacterium vaccae = test: Antimicrobial activity against Mycobacterium vaccae incubated for 24 hrs by broth microdilution assay; format: functional
[10] = test system: Mycolicibacterium smegmatis; test: Antimicrobial activity against Mycobacterium smegmatis incubated for 24 hrs by broth microdilution assay; format: functional
Mycolicibacterium aurum = test: Antimicrobial activity against Mycobacterium aurum incubated for 24 hrs by broth microdilution assay; format: functional
[11] = test system: Mycolicibacterium smegmatis; test: Inhibition of Mycobacterium smegmatis ATCC 607 dihydrofolic reductase assessed as ratio of Km to Ki
[12] = Inhibition of Mycobacterium smegmatis ATCC 607 dihydrofolic reductase; set-up: species or system Mycolicibacterium smegmatis
[13] = test system: Mycolicibacterium smegmatis; test: Antimicrobial activity against Mycobacterium smegmatis ATCC 607; format: functional; conditions: Mycolicibacterium smegmatis, ATCC 607; read-out: MIC
[14] = test system: Mycolicibacterium smegmatis; test: Antimicrobial activity against Mycobacterium smegmatis incubated for 30 to 32 hrs under shaking condition relative to control; format: functional
[15] = test system: Mycolicibacterium smegmatis; test: Antimicrobial activity against Mycobacterium smegmatis incubated for 30 to 32 hrs under shaking condition; format: functional
[16] = Drug excretion in rat urine at 400 mg/kg, sc administered as single dose measured after 30 days; format: ADME, organism-based; conditions: read-out: Drug excretion
Plasmodium berghei = test: Antimalarial activity against Plasmodium berghei infected in albino mouse assessed survival against infection at 400 mg/kg, sc administered as single dose; format: functional
[17] = Half life in rat at 400 mg/kg, sc administered as single dose; format: ADME, organism-based; conditions: in vivo
Mycobacterium leprae [18] = test: Anti-leprotic activity against Mycobacterium leprae infected in albino mouse assessed survival against infection at 400 mg/kg, sc administered 58 days post-infection and subsequent compound dosing at 200 mg/kg at 0.5, 1 or 2 months interval; format: functional

C[C@@H](O)[C@H]1C(=O)N2C(C(=O)O)=C(SCCNC=N)O[C@H]12
diameter of the inhibition zone (DIZ) (Staphylococcus aureus): 28 mm | diameter of the inhibition zone (DIZ) (Escherichia coli): 31 mm

O=C1c2cccc([N+](=O)[O-])c2C(=O)N1c1cn(-c2ccccc2)c(=O)[nH]c1=O
viability at 50 µM [1]: 90% | inhibition at 50 µM (Monocyte [2]): < 10% | inhibition at 25 µM (Monocyte [3]): < 10%

O=C1c2c(F)c(F)c(F)c(F)c2C(=O)N1c1ccc(F)c(F)c1
viability at 50 µM [1]: 74% | inhibition at 50 µM (Monocyte [2]): < 10%

COc1cc(Oc2cnc(N)nc2N)cc(OC)c1Br
Activity (Mycobacterium leprae [4]): 0.56 ×10⁷ No_unit | Activity (Mycobacterium leprae [5]): 1.27 ×10⁷ No_unit

CCCCCCCCC(CCC1CCCO1)C(=O)O (configuration not stated)
MIC99 [6]: 9600 µM (≈ 2600 µg/mL)

CCN(CC)CCC/N=c1/cc2n(-c3ccc(Cl)cc3)c3ccccc3nc-2cc1Nc1ccc(Cl)cc1
inhibition at 0.2 µM (Mycobacterium leprae [7]): 22% | inhibition at 2 µM (Mycobacterium leprae [8]): 90%

CN(C)c1ncnc(SC(=S)N2CCCC2)c1[N+](=O)[O-]
MIC [9]: 1.56 mg/L (≈ 4.98 µM) | MIC (Mycolicibacterium vaccae): 1.56 mg/L (≈ 4.98 µM) | Activity (Mycobacterium leprae [4]): 2.14 ×10⁷ No_unit | MIC [10]: 3.12 mg/L (≈ 9.96 µM) | MIC (Mycolicibacterium aurum): 3.12 mg/L (≈ 9.96 µM) | Activity (Mycobacterium leprae [5]): 4.43 ×10⁷ No_unit

C[C@@H](O)[C@H]1C(=O)N2C(C(=O)O)=C(SCCNC=O)C[C@H]12
diameter of the inhibition zone (DIZ) (Staphylococcus aureus): 29 mm | diameter of the inhibition zone (DIZ) (Escherichia coli): 30 mm

N#Cc1cc([N+](=O)[O-])cnc1SC(=S)N1CCCCC1
MIC [9]: 1.56 mg/L (≈ 5.06 µM) | MIC (Mycolicibacterium vaccae): 1.56 mg/L (≈ 5.06 µM) | MIC [10]: 3.12 mg/L (≈ 10.1 µM) | MIC (Mycolicibacterium aurum): 1.56 mg/L (≈ 5.06 µM)

N#Cc1cc([N+](=O)[O-])cnc1SC(=S)N1CCCCCC1
MIC [9]: 0.8 mg/L (≈ 2.48 µM) | MIC (Mycolicibacterium vaccae): 0.4 mg/L (≈ 1.24 µM) | Activity (Mycobacterium leprae [4]): 0.28 ×10⁷ No_unit | MIC [10]: 1.56 mg/L (≈ 4.84 µM) | MIC (Mycolicibacterium aurum): 1.56 mg/L (≈ 4.84 µM) | Activity (Mycobacterium leprae [5]): 6.64 ×10⁷ No_unit

CCCCc1cnc2nc(N)nc(N)c2n1
Ratio [11]: 4100 | Ki [12]: 1 nM | MIC [13]: 917 µM (≈ 200 µg/mL)

O=C1c2ccccc2C(=O)N1c1cnc(S(=O)(=O)Nc2ccccn2)cn1
MIC99 [6]: 3000 µM (≈ 1140 µg/mL)

CC(C)CCc1cnc2nc(N)nc(N)c2n1
Ratio [11]: 4100 | Ki [12]: 1 nM | MIC [13]: 775 µM (≈ 180 µg/mL)

CC(C)/N=c1\cc2n(-c3ccc(Cl)cc3)c3ccccc3nc-2cc1Nc1ccc(Cl)cc1 [CLOFAZIMINE]
inhibition at 0.2 µM (Mycobacterium leprae [7]): 70% | inhibition at 2 µM (Mycobacterium leprae [8]): 94%

CC(C)Cc1cnc2nc(N)nc(N)c2n1
Ratio [11]: 4560 | Ki [12]: 0.9 nM | MIC [13]: 688 µM (≈ 150 µg/mL)

CCn1cc(C(=O)N/N=C\c2cc(OC)c(OC)c(OC)c2)c(=O)c2cc(F)c(N3CCN(C)CC3)cc21
Activity [14]: >30% | MIC [15]: 81.2 µM (≈ 42.7 µg/mL)

CC(=O)N(C)c1ccc(S(=O)(=O)c2ccc(N(C)C(C)=O)cc2)cc1
dose excreted at 720 h [16]: 85% | Survival (Plasmodium berghei): 9 weeks | half-life [17]: 10 days | Survival (Mycobacterium leprae [18]): >8 weeks

NC(=O)c1cc([N+](=O)[O-])cc([N+](=O)[O-])c1SC(=S)N1CCCC1
MIC [9]: 6.25 mg/L (≈ 17.5 µM) | MIC (Mycolicibacterium vaccae): 0.4 mg/L (≈ 1.12 µM) | MIC [10]: 50 mg/L (≈ 140 µM) | MIC (Mycolicibacterium aurum): 6.25 mg/L (≈ 17.5 µM)

Clc1ccc(Nc2cc3nc4ccccc4n(-c4ccc(Cl)cc4)c-3c/c2=N/CCCN2CCCC2)cc1
inhibition at 0.2 µM (Mycobacterium leprae [7]): 26% | inhibition at 2 µM (Mycobacterium leprae [8]): 98%

CC(=O)Nc1ccc(S(=O)(=O)c2ccc(N(C)C(C)=O)cc2)cc1
dose excreted at 720 h [16]: 44% | Survival (Plasmodium berghei): 6 weeks | half-life [17]: 27 days | Survival (Mycobacterium leprae [18]): >8 weeks

Nc1nc(N)c2nc(Cc3ccccc3)cnc2n1
Ratio [11]: 4560 | Ki [12]: 0.9 nM | MIC [13]: > 794 µM

COc1cc(CCc2cnc3nc(N)nc(N)c3n2)cc(OC)c1OC
Ratio [11]: 2050 | Ki [12]: 18 nM | MIC [13]: > 281 µM

CCn1cc(C(=O)N/N=C\c2ccc(C)cc2)c(=O)c2cc(F)c(N3CCN(C)CC3)cc21
Activity [14]: >30% | MIC [15]: 42.5 µM (≈ 19.1 µg/mL)

O=C1c2ccccc2C(=O)N1c1ccc(S(=O)(=O)Nc2ccccn2)cn1
MIC99 [6]: 6100 µM (≈ 2320 µg/mL)
